The assay has as its target T1, PD-1/PD-L1 (Homo sapiens, UniProt Q9NZQ7).
T1 construct: TVMV protease site linker (C); made in house; host or cells: HEK293T cells
The experiment in a line: PD-1/PD-L1 Homogenous Time-Resolved Fluorescence (HTRF) binding assay. Particulars: PD-L1-His 10 nM, PD-1-Ig 20 nM. A digest of the protocol:
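Time-resolved FRET read-out using Eu-cryptate anti-Ig (1 nM final) and APC anti-His (20 nM final). Tagged extracellular domains were used in BSA/Tween-20-supplemented dPBS, with compound pre-incubated 15 min with PD-L1-His (10 nM) before PD-1-Ig (20 nM) was added for 15 min. Other human pairs: PD-L2-His 5 nM with PD-1-Ig 20 nM; PD-L1-Ig 10 nM with CD80-His 100 nM.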
In general terms: TR-FRET usually uses a lanthanide donor and a delayed reading to cut background.

The IC50 is the concentration needed to halve the response being measured. High values mean weaker potency in that assay, low ones greater potency in that assay.

Molecules are shown by their SMILES.

T1 sequence (Q9NZQ7 18-239): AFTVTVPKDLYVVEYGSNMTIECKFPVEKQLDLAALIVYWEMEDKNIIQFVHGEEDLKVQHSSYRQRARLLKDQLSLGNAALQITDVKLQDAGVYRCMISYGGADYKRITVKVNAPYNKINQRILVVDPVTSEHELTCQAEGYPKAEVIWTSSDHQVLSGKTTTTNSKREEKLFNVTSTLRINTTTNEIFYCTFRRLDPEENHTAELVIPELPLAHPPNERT

For `CC(=O)NC1CCN(CCCOc2cccc(-c3cccc(COc4cc(OCc5cncc(C#N)c5)c(CN5CCCCC5c5nnn[nH]5)cc4Cl)c3C)c2Cl)CC1` (stereo not drawn) [Example 1055, N-(1-(3-((3′-((4-((2-(1H-Tetrazol-5-yl)piperidin-1-yl)methyl)-2-chloro-5-((5-cyano-pyridin-3-yl)methoxy)phenoxy)methyl)-2-chloro-2′-methyl-[1,1′-biphenyl]-3-yl)oxy)-propyl)-piperidin-4-yl)acetamide], the 50% inhibitory concentration (IC50) came out at 1.2 nM. As for `CC(=O)NC1CCN(CCCOc2cccc(-c3cccc(COc4cc(OCc5cncc(C#N)c5)c(CNc5nnn[nH]5)cc4Cl)c3C)c2Cl)CC1` [Example 1056, N-(1-(3-((3′-((4-(((1H-Tetrazol-5-yl)amino)methyl)-2-chloro-5-((5-cyanopyridin-3-yl)-methoxy)phenoxy)methyl)-2-chloro-2′-methyl-[1,1′-biphenyl]-3-yl)oxy)propyl)piperidin-4-yl)acetamide], the half-maximal inhibitory concentration (IC50) amounted to 1.8 nM. `CC(=O)NC1CCN(CCCOc2cccc(-c3cccc(COc4cc(OCc5cncc(C#N)c5)c(CNCc5nnn[nH]5)cc4Cl)c3C)c2Cl)CC1` [Example 1057, N-(1-(3-((3′-((4-((((1H-Tetrazol-5-yl)methyl)amino)methyl)-2-chloro-5-((5-cyano-pyridin-3-yl)methoxy)phenoxy)methyl)-2-chloro-2′-methyl-[1,1′-biphenyl]-3-yl)oxy)-propyl)piperidin-4-yl)acetamide] came in with an IC50 of 0.7 nM. The same measure for `CC(=O)NC1CCN(CCCOc2cccc(-c3cccc(COc4cc(OCc5cncc(C#N)c5)c(CN5CCC(c6nnn[nH]6)C5)cc4Cl)c3C)c2Cl)CC1` (stereo not drawn) [Example 1058, N-(1-(3-((3′-((4-((3-(1H-Tetrazol-5-yl)pyrrolidin-1-yl)methyl)-2-chloro-5-((5-cyano-pyridin-3-yl)methoxy)phenoxy)methyl)-2-chloro-2′-methyl-[1,1′-biphenyl]-3-yl)oxy)-propyl)piperidin-4-yl)acetamide]: 1.9 nM; for `CC(=O)NC1CCN(CCCOc2cccc(-c3cccc(COc4cc(OCc5cncc(C#N)c5)c(CN5CCCCC5c5cn[nH]c5)cc4Cl)c3C)c2Cl)CC1` (stereo not drawn) [Example 1059, N-(1-(3-((3′-((4-((2-(1H-Pyrazol-4-yl)piperidin-1-yl)methyl)-2-chloro-5-((5-cyano-pyridin-3-yl)methoxy)phenoxy)methyl)-2-chloro-2′-methyl-[1,1′-biphenyl]-3-yl)oxy)-propyl)piperidin-4-yl)acetamide]: 3.6 nM; for `Cc1c(COc2cc(OCc3cncc(C#N)c3)c(CNCc3cc[nH]n3)cc2Cl)cccc1-c1cccc(OCCCN2CC[C@@H](O)C2)c1C` [Example 2001, (R)-5-((2-((((1H-pyrazol-3-yl)methyl)amino)methyl)-4-chloro-5-((3′-(3-(3-hydroxypyrrolidin-1-yl)propoxy)-2,2′-dimethyl-[1,1′-biphenyl]-3-yl)methoxy)phenoxy)methyl)nicotinonitrile]: 0.2 nM. Regarding `Cc1c(COc2cc(OCc3cncc(C#N)c3)c(CNCc3ncn[nH]3)cc2Cl)cccc1-c1cccc(OCCCN2CC[C@@H](O)C2)c1C` [Example 2002, (R)-5-((2-((((1H-1,2,4-triazol-5-yl)methyl)amino)methyl)-4-chloro-5-((3′-(3-(3-hydroxypyrrolidin-1-yl)propoxy)-2,2′-dimethyl-[1,1′-biphenyl]-3-yl)methoxy)phenoxy)methyl)nicotinonitrile], the IC50 stood at 9.3 nM.

As for `Cc1c(COc2cc(OCc3cncc(C#N)c3)c(CNCc3c[nH]cn3)cc2Cl)cccc1-c1cccc(OCCCN2CC[C@@H](O)C2)c1C` [Example 2003, (R)-5-((2-((((1H-imidazol-4-yl)methyl)amino)methyl)-4-chloro-5-((3′-(3-(3-hydroxypyrrolidin-1-yl)propoxy)-2,2′-dimethyl-[1,1′-biphenyl]-3-yl)methoxy)phenoxy)methyl)nicotinonitrile], the IC50 was determined as 7.2 nM. Regarding `Cc1c(COc2cc(OCc3cncc(C#N)c3)c(CNCc3ncc[nH]3)cc2Cl)cccc1-c1cccc(OCCCN2CC[C@@H](O)C2)c1C` [Example 2004, (R)-5-((2-((((1H-imidazol-2-yl)methyl)amino)methyl)-4-chloro-5-((3′-(3-(3-hydroxypyrrolidin-1-yl)propoxy)-2,2′-dimethyl-[1,1′-biphenyl]-3-yl)methoxy)phenoxy)methyl)nicotinonitrile], the IC50 came to 4.1 nM. The compound `Cc1c(COc2cc(OCc3cncc(C#N)c3)c(CN(C)Cc3cc[nH]n3)cc2Cl)cccc1-c1cccc(OCCCN2CC[C@@H](O)C2)c1C` [Example 2005, (R)-5-((2-((((1H-pyrazol-3-yl)methyl)(methyl)amino)methyl)-4-chloro-5-((3′-(3-(3-hydroxypyrrolidin-1-yl)propoxy)-2,2′-dimethyl-[1,1′-biphenyl]-3-yl)methoxy)phenoxy)methyl)nicotinonitrile] gave an IC50 of 2.5 nM.

`Cc1c(COc2cc(OCc3cncc(C#N)c3)c(CN(C)Cc3ncn[nH]3)cc2Cl)cccc1-c1cccc(OCCCN2CC[C@@H](O)C2)c1C` [Example 2006, (R)-5-((2-((((1H-1,2,4-triazol-5-yl)methyl)(methyl)amino)methyl)-4-chloro-5-((3′-(3-(3-hydroxypyrrolidin-1-yl)propoxy)-2,2′-dimethyl-[1,1′-biphenyl]-3-yl)methoxy)phenoxy)methyl)nicotinonitrile] had a 50% inhibitory concentration (IC50) of 0.2 nM.

In the case of `Cc1c(COc2cc(OCc3cncc(C#N)c3)c(CN(C)Cc3c[nH]cn3)cc2Cl)cccc1-c1cccc(OCCCN2CC[C@@H](O)C2)c1C` [Example 2007, (R)-5-((2-((((1H-imidazol-4-yl)methyl)(methyl)amino)methyl)-4-chloro-5-((3′-(3-(3-hydroxypyrrolidin-1-yl)propoxy)-2,2′-dimethyl-[1,1′-biphenyl]-3-yl)methoxy)phenoxy)methyl)nicotinonitrile], the IC50 was 0.6 nM.

Compound `Cc1c(COc2cc(OCc3cncc(C#N)c3)c(CN(C)Cc3ncc[nH]3)cc2Cl)cccc1-c1cccc(OCCCN2CC[C@@H](O)C2)c1C` [Example 2008, (R)-5-((2-((((1H-imidazol-2-yl)methyl)(methyl)amino)methyl)-4-chloro-5-((3′-(3-(3-hydroxypyrrolidin-1-yl)propoxy)-2,2′-dimethyl-[1,1′-biphenyl]-3-yl)methoxy)phenoxy)methyl)nicotinonitrile] gave an IC50 of 0.5 nM.

With `Cc1c(COc2cc(OCc3cncc(C#N)c3)c(CNCc3ncn[nH]3)cc2Cl)cccc1-c1cccc(OCCCN2CCC(O)(CO)CC2)c1Cl` [Example 2009, 5-((2-((((1H-1,2,4-triazol-5-yl)methyl)amino)methyl)-4-chloro-5-((2′-chloro-3′-(3-(4-hydroxy-4-(hydroxymethyl)piperidin-1-yl)propoxy)-2-methyl-[1,1′-biphenyl]-3-yl)methoxy)phenoxy)methyl)nicotinonitrile], the IC50 stood at 2.1 nM. Consider `Cc1c(COc2cc(OCc3cncc(C#N)c3)c(CNCc3c[nH]cn3)cc2Cl)cccc1-c1cccc(OCCCN2CCC(O)(CO)CC2)c1Cl` [Example 2010, 5-((2-((((1H-imidazol-4-yl)methyl)amino)methyl)-4-chloro-5-((2′-chloro-3′-(3-(4-hydroxy-4-(hydroxymethyl)piperidin-1-yl)propoxy)-2-methyl-[1,1′-biphenyl]-3-yl)methoxy)phenoxy)methyl)nicotinonitrile], for which the IC50 stood at 2.1 nM.
